Our source for the Kd values is patent publication US20260116920A1, “HUMAN TRANSFERRIN RECEPTOR BINDING PEPTIDE” (PEPTIDREAM INC., priority 2021, published 2026).

pKd: −log10 of the molar value. Positions of bridges follow the written chain, without caps; N, C: chain ends. Non-standard residues stand in square brackets, D forms with d. Residues, ends and D or L forms follow the SMILES beside them. *: point of attachment. Trp(1-CH2COOH) = N[C@@H](Cc1cn(CC(=O)O)c2ccccc12)C(=O)O; Phe(3-COOH) = N[C@@H](Cc1cccc(C(=O)O)c1)C(=O)O; NH(CH2CH2O)8Me = COCCOCCOCCOCCOCCOCCOCCOCCN*; NMePhe(3-Cl) = CN[C@@H](Cc1cccc(Cl)c1)C(=O)O; 3Pal(6-NH2) = Nc1ccc(C[C@H](N)C(=O)O)cn1; NMeY = CN[C@@H](Cc1ccc(O)cc1)C(=O)O; 3Pal = N[C@@H](Cc1cccnc1)C(=O)O; 4Pal = N[C@@H](Cc1ccncc1)C(=O)O; PEG4 = NCCOCCOCCOCCOCCC(=O)O; Carboxymethyl = O=C(O)C*

The first experiment deals with T1, human transferrin receptor (hTfR) (Homo sapiens, UniProt P02786).
T1 construct: made in house
T1 sequence (P02786 89-760 limits assumed): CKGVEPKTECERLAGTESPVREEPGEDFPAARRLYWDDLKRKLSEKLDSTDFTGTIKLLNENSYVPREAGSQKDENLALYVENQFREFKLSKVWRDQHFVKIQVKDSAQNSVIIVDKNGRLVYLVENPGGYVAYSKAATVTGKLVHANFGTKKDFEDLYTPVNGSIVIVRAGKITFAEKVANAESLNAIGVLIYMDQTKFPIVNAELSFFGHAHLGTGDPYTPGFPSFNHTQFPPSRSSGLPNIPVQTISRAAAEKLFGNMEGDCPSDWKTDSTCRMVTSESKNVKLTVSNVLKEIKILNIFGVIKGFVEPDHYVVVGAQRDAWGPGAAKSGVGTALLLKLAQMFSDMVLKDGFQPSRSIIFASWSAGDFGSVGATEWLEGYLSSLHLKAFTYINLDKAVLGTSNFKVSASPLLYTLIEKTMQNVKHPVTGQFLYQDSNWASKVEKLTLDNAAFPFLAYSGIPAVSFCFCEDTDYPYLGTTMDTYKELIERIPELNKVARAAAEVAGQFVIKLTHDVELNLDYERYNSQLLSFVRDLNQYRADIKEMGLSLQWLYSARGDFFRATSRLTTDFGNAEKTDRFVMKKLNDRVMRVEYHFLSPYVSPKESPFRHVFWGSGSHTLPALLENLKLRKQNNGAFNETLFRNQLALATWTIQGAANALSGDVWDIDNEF
Briefly: Evaluation of molecular interaction between transferrin receptor (hTfR) and peptide using surface plasmon resonance (SPR). In kind it is binding. The note with it: KD class for binding to hTfR by SPR; peptide with the linker shown in the same line; 'low signal indicates no activity'; read-out: SPR. In short, it runs like this:
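Single-cycle SPR kinetics, KD by least-squares sensorgram fitting, with peptide series of 100, 50, 25, 10 and 5 nM. Running buffer: 10 mM HEPES pH 8.0, 150 mM NaCl, 0.05% Tween 20, 0.1% BSA, 1.0% DMSO. Surface: hTfR dimer covalently coupled (EDC/NHS) onto Ni-NTA chip.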
A general note: In SPR one partner is held on a chip, and binding of the other changes the refractive index at the surface.
For the compound `CC[C@H](C)[C@@H]1NC(=O)[C@H](Cc2ccc(OCC(=O)O)cc2)NC(=O)[C@H](Cc2ccc(O)cc2)NC(=O)[C@H](CC(N)=O)NC(=O)[C@H](Cc2cn(CC(=O)O)c3ccccc23)NC(=O)[C@H](C(C)C)NC(=O)[C@H](Cc2cccc(Cl)c2)N(C)C(=O)[C@H](C(C)C)NC(=O)[C@H](C)NC(=O)CSC[C@@H](C(=O)NCC(=O)N[C@@H](CCCCN=[N+]=[N-])C(N)=O)NC(=O)[C@H](Cc2ccc(O)cc2)N(C)C(=O)[C@H](Cc2ccccc2)NC(=O)[C@H](CCCNC(=N)N)NC(=O)[C@H](CCCNC(=N)N)NC(=O)[C@H]([C@@H](C)CC)NC1=O` [894_3171], the pKd was 7.00 to 9.00.

The experiment is the same for the next values; noted with them: surface plasmon resonance, binding to hTfR; KD class symbol; read-out: SPR (KD value).
With `CC[C@H](C)[C@@H]1NC(=O)[C@H](Cc2cccnc2)NC(=O)[C@H](Cc2ccc(O)cc2)NC(=O)[C@H](CC(N)=O)NC(=O)[C@H](Cc2cn(CC(=O)O)c3ccccc23)NC(=O)[C@H](C(C)C)NC(=O)[C@H](Cc2cccc(Cl)c2)N(C)C(=O)[C@H](C(C)C)NC(=O)[C@H](C)NC(=O)CSC[C@@H](C(=O)NCCOCCOCCOCCOCCC(N)=O)NC(=O)[C@H](Cc2ccc(O)cc2)N(C)C(=O)[C@H](Cc2ccncc2)NC(=O)[C@H](CCC(=O)NCCOCCOCCOCCOCCOCCOCCOCCOC)NC(=O)[C@H](CCCNC(=N)N)NC(=O)[C@H]([C@@H](C)CC)NC1=O` [compound 83] ({CH2CO}-AV[NMePhe(3-Cl)]V[Trp(1-CH2COOH)]NY[3Pal]IIRE(NH(CH2CH2O)8Me)[4Pal][NMeY]C[PEG4]-NH2; thioether N-15), the pKd is 7.00 to 9.00.

Consider `CC[C@H](C)[C@@H]1NC(=O)[C@H](Cc2ccc(OCC(=O)O)cc2)NC(=O)[C@H](Cc2ccc(O)cc2)NC(=O)[C@H](CC(N)=O)NC(=O)[C@H](Cc2cn(CC(=O)O)c3ccccc23)NC(=O)[C@H](C(C)C)NC(=O)[C@H](Cc2cccc(Cl)c2)N(C)C(=O)[C@H](C(C)C)NC(=O)[C@H](C)NC(=O)CSC[C@@H](C(=O)NCCOCCOCCOCCOCCC(N)=O)NC(=O)[C@H](Cc2ccc(O)cc2)N(C)C(=O)[C@H](Cc2ccncc2)NC(=O)[C@H](CCCCN2CCOCC2)NC(=O)[C@H](CCC(N)=O)NC(=O)[C@H]([C@@H](C)CC)NC1=O` [compound 135], for which the pKd is 7.00 to 9.00.

In the case of `CC[C@H](C)[C@@H]1NC(=O)[C@H](Cc2ccc(OCC(=O)O)cc2)NC(=O)[C@H](Cc2ccc(O)cc2)NC(=O)[C@H](CC(N)=O)NC(=O)[C@H](Cc2c[nH]c3ccccc23)NC(=O)[C@H](C(C)C)NC(=O)[C@H](Cc2cccc(Cl)c2)N(C)C(=O)[C@H](C(C)C)NC(=O)[C@H](C)NC(=O)CSC[C@@H](C(=O)NCCOCCOCCOCCOCCC(N)=O)NC(=O)[C@H](Cc2ccc(O)cc2)N(C)C(=O)[C@H](Cc2ccccc2)NC(=O)[C@H](CCCNC(=N)N)NC(=O)[C@H](CCC(=O)NCCOCCOCCOCCOC)NC(=O)[C@H]([C@@H](C)CC)NC1=O` [compound 113], the pKd was 7.00 to 9.00.

With `CC[C@H](C)[C@@H]1NC(=O)[C@H](Cc2ccc(OCC(=O)O)cc2)NC(=O)[C@H](Cc2ccc(O)cc2)NC(=O)[C@H](CC(N)=O)NC(=O)[C@H](Cc2cn(CC(=O)O)c3ccccc23)NC(=O)[C@H](C(C)C)NC(=O)[C@H](Cc2cccc(Cl)c2)N(C)C(=O)[C@H](C(C)C)NC(=O)[C@H](C)NC(=O)CSC[C@@H](C(=O)NCCOCCOCCOCCOCCC(N)=O)NC(=O)[C@H](Cc2ccc(O)cc2)N(C)C(=O)[C@H](Cc2cccc(C(=O)O)c2)NC(=O)[C@H](CCCNC(=N)N)NC(=O)[C@H](CCC(=O)NCCOCCOCCOCCOCCOCCOCCOCCOC)NC(=O)[C@H]([C@@H](C)CC)NC1=O` [compound 103], the pKd was 7.00 to 9.00.

With `CC[C@H](C)[C@@H]1NC(=O)[C@H](Cc2ccc(OCC(=O)O)cc2)NC(=O)[C@H](Cc2ccc(N)nc2)NC(=O)[C@H](CC(N)=O)NC(=O)[C@H](Cc2c[nH]c3ccccc23)NC(=O)[C@H](C(C)C)NC(=O)[C@H](Cc2cccc(Cl)c2)N(C)C(=O)[C@H](C(C)C)NC(=O)[C@H](C)NC(=O)CSC[C@@H](C(=O)NCCOCCOCCOCCOCCC(N)=O)NC(=O)[C@H](Cc2ccc(O)cc2)N(C)C(=O)[C@H](Cc2cccc(C(=O)O)c2)NC(=O)[C@H](CCC(=O)NCCOCCOCCOCCOCCOCCOCCOCCOC)NC(=O)[C@H](CCCNC(=N)N)NC(=O)[C@H]([C@@H](C)CC)NC1=O` [compound 99] ({CH2CO}-AV[NMePhe(3-Cl)]VWN[3Pal(6-NH2)]Y(Carboxymethyl)IIRE(NH(CH2CH2O)8Me)[Phe(3-COOH)][NMeY]C[PEG4]-NH2; thioether N-15), the pKd was 7.00 to 9.00.

As to `CC[C@H](C)[C@@H]1NC(=O)[C@H](Cc2ccc(O)cc2)NC(=O)[C@H](Cc2ccc(O)cc2)NC(=O)[C@H](CC(N)=O)NC(=O)[C@H](Cc2c[nH]c3ccc(Cl)cc23)NC(=O)[C@H](C(C)C)NC(=O)[C@H](Cc2ccc(F)cc2)N(C)C(=O)[C@H](C(C)C)NC(=O)[C@H](C)NC(=O)CSC[C@@H](C(N)=O)NC(=O)[C@H](Cc2ccc(O)cc2)N(C)C(=O)[C@H](Cc2ccccc2)NC(=O)[C@H](CCCCNC(=O)CCOCCOCCOCCOC)NC(=O)[C@H](CCCNC(=N)N)N(C)C(=O)[C@H]([C@@H](C)CC)NC1=O` [compound 3], the pKd was 7.00 to 9.00.

Take `CC[C@H](C)[C@@H]1NC(=O)[C@H](Cc2ccc(OCC(=O)O)cc2)NC(=O)[C@H](Cc2ccc(O)cc2)NC(=O)[C@H](CC(N)=O)NC(=O)[C@H](Cc2c[nH]c3ccccc23)NC(=O)[C@H](C(C)C)NC(=O)[C@H](Cc2cccc(Cl)c2)N(C)C(=O)[C@H](C(C)C)NC(=O)[C@H](C)NC(=O)CSC[C@@H](C(=O)NCCOCCOCCOCCOCCC(N)=O)NC(=O)[C@H](Cc2ccc(O)cc2)N(C)C(=O)[C@H](Cc2ccccc2)NC(=O)[C@H](CCC(=O)NCCOCCOCCOCCOCCOCCOCCOCCOC)NC(=O)[C@H](CCCNC(=N)N)NC(=O)[C@H]([C@@H](C)CC)NC1=O` [compound 89]: the pKd is 7.00 to 9.00.

As to `CC[C@H](C)[C@@H]1NC(=O)[C@H](Cc2cccnc2)NC(=O)[C@H](Cc2ccc(O)cc2)NC(=O)[C@H](CC(N)=O)NC(=O)[C@H](Cc2c[nH]c3ccccc23)NC(=O)[C@H](C(C)C)NC(=O)[C@H](Cc2cccc(Cl)c2)N(C)C(=O)[C@H](C(C)C)NC(=O)[C@H](C)NC(=O)CSC[C@@H](C(=O)NCCOCCOCCOCCOCCC(N)=O)NC(=O)[C@H](Cc2ccc(O)cc2)N(C)C(=O)[C@H](Cc2ccncc2)NC(=O)[C@H](CCCNC(=N)N)NC(=O)[C@H](CCCNC(=N)N)NC(=O)[C@H]([C@@H](C)CC)NC1=O` [compound 51] ({CH2CO}-AV[NMePhe(3-Cl)]VWNY[3Pal]IIRR[4Pal][NMeY]C[PEG4]-NH2; thioether N-15), the pKd was 7.00 to 9.00.

Regarding `CC[C@H](C)[C@@H]1NC(=O)[C@H](Cc2ccc(OCC(=O)O)cc2)NC(=O)[C@H](Cc2ccc(N)nc2)NC(=O)[C@H](CC(N)=O)NC(=O)[C@H](Cc2cn(CC(=O)O)c3ccccc23)NC(=O)[C@H](C(C)C)NC(=O)[C@H](Cc2cccc(Cl)c2)N(C)C(=O)[C@H](C(C)C)NC(=O)[C@H](C)NC(=O)CSC[C@@H](C(=O)NCCOCCOCCOCCOCCC(N)=O)NC(=O)[C@H](Cc2ccc(O)cc2)N(C)C(=O)[C@H](Cc2cccc(C(=O)O)c2)NC(=O)[C@H](CCC(=O)NCCOCCOCCOCCOCCOCCOCCOCCOC)NC(=O)[C@H](CCCNC(=N)N)NC(=O)[C@H]([C@@H](C)CC)NC1=O` [compound 87] ({CH2CO}-AV[NMePhe(3-Cl)]V[Trp(1-CH2COOH)]N[3Pal(6-NH2)]Y(Carboxymethyl)IIRE(NH(CH2CH2O)8Me)[Phe(3-COOH)][NMeY]C[PEG4]-NH2; thioether N-15), the pKd is 6.00 to 7.00.
